Experimental findings from patent US20150230474A1, “Use of Glyphosate to Control Clubroot Disease” (priority 2014, published 2015) are described below.

Data set [1] has as its system Plasmodiophora brassicae. The data set is described as follows: Treatment of canola seedlings: potting mix irrigated with glyphosate solution, then inoculated with P. brassicae spores. The format is in vivo. Conditions: 572 mg/pot glyphosate, 15 days post-inoculation, VT500G canola. The protocol: (§1) An isolate of clubroot pathogen Plasmodiophora brassicae was obtained from infested canola fields in central Alberta. The pathogen population from this collection may represent a mixture of pathotypes, but pathotype 3 is expected to be predominant (Peng et al., 2011). The inoculum was propagated using a susceptible canola cv. Westar grown in the infested soil with spores. Fresh clubroot galls were harvested, air dried, and stored at 4° C., and were further used for fresh inoculum preparation. To extract spores, 2-5 g of air-dried galls were soaked in distilled water for a few hours to soften the tissues and then ground in a mortar with pestle. The resulting slurry was filtered through three layers of cheesecloth and the spore concentration was estimated under a microscope. Inoculum concentration of 1.0·10^7 resting spores/ml was used for inoculation.
Canola plants, cultivar Westar and the glyphosate-resistant transgenic line VT500G of Brassica napus, were used. Plants were grown in a phytotron at 22° C. with a light/dark photoperiod of 16 h/8 h (light intensity 120 μmol m^−2 s^−1). […]

The subject of data set [2] is Plasmodiophora brassicae. The data set can be described thus: Pre-seeding treatment of P. brassicae infested potting mix, VT500G canola then sown. The format is in vivo. The settings on record: for plant growth / foliar symptoms of clubroot disease: 35 days post seeding; for early senescence: 60 days post seeding. As for the experimental part: as §1
(§2) Canola plants, cultivar Westar and the Roundup®-resistant transgenic line VT500G of Brassica napus, were used. Plants were grown in a phytotron at 22° C. with a light/dark photoperiod of 16 h/8 h (light intensity 120 μmol m^−2 s^−1).
(§3) Potting mix consisting of fine peat moss, vermiculite, gypsum, dolomitic limestone and starter nutrient (Sunshine Mix #3; pH 5.8-6.2; Sun Gro Horticulture Canada Ltd., Canada) in 13 cm diameter plastic pots was inoculated with P. brassicae spores. The P. brassicae infested potting soil was then irrigated with 350 ml of water or glyphosate (Roundup®, Monsanto Canada Inc.) solution to provide an application rate of 0 mg, 143, 286, or 572 mg of glyphosate per 13 cm pot containing 750 cm3 of potting mix. VT500G canola seeds were subsequently sown on the treated potting mix and allowed to grow at 22° C. with a light/dark photoperiod of 16 h/8 h for 65 days. Plant growth and clubroot symptom development were monitored over the incubation time course.

A further data set concerns VT500G canola plants. The data set is described as follows: Growth impediment of canola seedlings after pre-seeding glyphosate treatment of potting mix. The format is in vivo, Brassica napus. The protocol: as §2, §3

“Also recorded” adds a separate entry of the source.

`O=C(O)CNCP(=O)(O)O` [glyphosate, N-(phosphonomethyl)glycine]: the “clubroot development in the root system” value with Plasmodiophora brassicae [1] is listed as “prevented visible clubroot development”. Further, the “plant growth / foliar symptoms of clubroot disease” value in the data set with Plasmodiophora brassicae [2] (143 mg/pot), in the data set on Plasmodiophora brassicae [2] (286 mg/pot) and in the data set with Plasmodiophora brassicae [2] (572 mg/pot) was “normal growth” each time. Also, the early senescence entry in the data set with Plasmodiophora brassicae [2] (143 mg/pot) is “appeared less affected, albeit with some signs of early senescence; also recorded: showed an early senescence”; in the data set with Plasmodiophora brassicae [2] (286 mg/pot) it was “did not display early senescence”; in the data set with Plasmodiophora brassicae [2] (572 mg/pot) it was “did not display early senescence”. Moreover, the silique/seed production result in the data set on Plasmodiophora brassicae [2] (143 mg/pot, 65 days post seeding) was “Abortions of silique development were frequently observed”; in the data set on Plasmodiophora brassicae [2] (286 mg/pot, 65 days post seeding), “normal silique/seed production”; with Plasmodiophora brassicae [2] (572 mg/pot, 65 days post seeding) it was “normal silique/seed production”. Moreover, the plant survival entry in the data set on Plasmodiophora brassicae [2] (all glyphosate treatments (143, 286, 572 mg/pot), 65 days post seeding) is listed as “all glyphosate treated plants had survived”. For the same compound, the “incidence of clubroot disease” value with Plasmodiophora brassicae [2] (drench application of glyphosate pesticide solution to inoculated potting mix, glyphosate-resistant canola) is given as “reduced the incidence of clubroot disease”. For the same compound, the chlorosis of leaves result with VT500G canola plants (572 mg/pot, 12 days post seeding) is “light chlorosis on true leaves”. Also, the growth retardation result in the data set on VT500G canola plants (572 mg/pot, 22 days post seeding) is reported as “slightly retarded growth”. The “growth impediment of seedlings” value with VT500G canola plants (glyphosate-treated seedlings, early stages) is reported as “Some growth retardation; also recorded: some growth impediment”.
